Tests used:
Type in all cases: in vivo
[1] = Quantification of BHB and lactate in rat serum after oral administration (LC-MS/MS); conditions: compared to baseline (internal control), sampling until 180 minutes
Experimental: (§1) The diLaKe ester (formula II) is diluted in physiological saline solution (0.9% NaCl) and administered as a single bolus of 2 mL, per oral dose. The dose of 4500 mg/kg is based on a previous pilot series. Placebo animals receive a single bolus of 2 mL physiological saline solution (0.9% NaCl).
Male Sprague Dawley rats are kept for acclimatization at a constant temperature of 23° C., with a 12 h light-dark cycle and with unlimited access to food and water. All animal handling is in accordance with national guidelines in Denmark and the Guide for the Care and Use of Laboratory Animals^1 and all experiments conformed to Danish Law (Act. No. 1306 of 23 Nov. 2007).
The rats are randomly selected to receive either diLaKe or placebo.
Rats are anaesthetised in an induction chamber with 8% Sevoflurane (Sevorane®, AbbVIE A/S, Copenhagen, Denmark) mixed with oxygen saturated atmospheric air (flow: 2.0 L/min).
Upon achieved anaesthesia, the rats are intubated and connected to a mechanical ventilator (Ugo Basile 7025 rodent ventilator, Comerio, Varese, Italy) with an adjusted flow of 1.0 L/min with 3.5% Sevoflurane. Body temperature is kept at a constant 37° C.±1° C. with a temperature probe (UNO, Zevenaar, Holland). A PTFE coated flexible orogastric tube (Fuchigami, Japan) is placed and the rat is left for stabilization for 15 minutes.
After stabilization a baseline blood sample is collected from the rat tail vein before administration of diLaKe or placebo.
(§2) Following the baseline blood sample, a bolus of diLaKe solution or placebo is administered via the orogastric tube to the animals. […] Serum is collected and stored at −80° C. for further analysis.
The concentration of BHB and lactate will be determined in the blood samples isolated from the rats according to example 3. Rat serum isolated every 15 minutes for a 2 hours are analyzed. The quantification is done on LC-MS/MS using isotopically labeled internal standards (7).
The LaKe ester (formula XXII and XXIII) was diluted in physiological saline solution (0.9% NaCl) and administered as a single bolus of 2 mL, per oral dose. The dose of 4500 mg/kg was based on a previous pilot series (data not shown).
Male Sprague Dawley rats (300-350 g, Taconic, Ry, Denmark) were kept for acclimatization at a constant temperature of 23° C., with a 12 h light-dark cycle and with unlimited access to food and water. […]
Based on own experience and reports by other research groups, a sample size of n=8 was considered adequate to identify a treatment effect. All results are expressed as mean±SD unless otherwise stated. Differences in concentrations were analysed using two-way ANOVA with Bonferroni post hoc correction. […]

[2] = test system: N-lactoyl-phenylalanine (Lac-Phe); test: Quantification of N-lactoyl-phenylalanine (Lac-Phe) in rat serum after oral administration (LC-MS/MS); conditions: compared to baseline (internal control)
Experimental: As provided in example 21 with the difference that N-lactoyl-phenylalanine (Lac-Phe) was quantified using LC-MS/MS analyses.
LC-MS/MS analyses were carried out as follows: Forty μL rat plasma was diluted with 100 μL water in a 2 mL tube, added 115 μL methanol (Merck hypergrade) and 420 μL acetonitrile (Merck hypergrade), vortex mixed, incubated for 5 min at room temperature, and then centrifuged at 10,000×g for 5 min. Five hundred microliter supernatant was transferred to a 96-well plate (Eppendorf 1 mL deepwell), evaporated to dryness under a nitrogen gas flow at 30° C., and then reconstituted in 100 μL water with 0.1% formic acid. […]
The sample was introduced to the mass spectrometer through electrospray ionization in the negative mode with a capillary voltage of 2.2 kV and the source and desolvation temperatures were 150 and 500° C., and the nitrogen gas flows were 50 L/h (cone) and 800 L/h (desolvation). The analytes were detected in the multiple reaction monitoring mode with the following transitions (m/z) and cone voltage/collision energies (CV/CE), L-Lac-Phe (quantification ion m/z: 236.2>88.1, CV/CE: 25V/15 eV and qualifier ion m/z: 236.2>147.1, CV/CE: 25V/15 eV). […]

free fatty acids (FFA) = test: Non-esterified free fatty acids in rat serum after oral administration (NEFA-HR (2) kit); conditions: rats, compared to baseline (internal control), sampling until 180 minutes
Experimental: as §1, §2
The concentration of free-fatty acids (FFA) is determined in the blood samples isolated from the rats according to example 3. […]
Concentrations of non-esterified free fatty acids (NEFA) are measured using a NEFA-HR (2) kit (Wako, Chemicals Gmbh). Absorbance is measured by spectrometry (PHERAstar FS, BMG LABTECH, Ortenberg, Germany). […]
The concentration of free-fatty acids (FFA) was determined in the blood samples isolated from the rats according to example 4. […]
Concentrations of non-esterified free fatty acids (NEFA) were measured using a NEFA-HR (2) kit (Wako, Chemicals Gmbh). Absorbance was measured by spectrometry (PHERAstar FS, BMG LABTECH, Ortenberg, Germany).
The concentration of free-fatty acids (FFA) was determined in the blood samples isolated from the rats according to example 4, with the difference that KeLa (formula XXIV and XXV) was used. […]

SMILES	Serum levels of BHB ([1]; single rat)	Serum levels of lactate ([1]; single rat)	Serum concentration of Lac-Phe ([2]; single rat)	Serum levels of BHB ([1]; rats)	Serum levels of lactate ([1]; rats)	FFA-levels in rat serum (free fatty acids (FFA))	Serum concentration of Lac-Phe ([2]; rats, sampling until 180 minutes)
CC(=O)C(=O)OCC[C@@H](C)OC(=O)C(C)=O [diPyKe, (R)-butane-1,3-diyl bis(2-oxopropanoate)]	increase in serum levels	increase in serum levels	increased serum concentration				
C[C@H](CCOC(=O)[C@H](C)O)OC(=O)[C@H](C)O [diLaKe, (R)-butane-1,3-diyl (2S,2'S)-bis(2-hydroxypropanoate)]				increase in serum levels	increase in serum levels	decrease in FFA-levels	increased serum concentration

Reference: patent US20250304523A1, “COMBINED LACTATE AND KETONE BODY ESTERS FOR MEDICAL AND NUTRITIONAL USE” (Aarhus Universitet, priority 2022, published 2025)
